Among the data in ChEMBL document CHEMBL1154255 (2009) are GI50 values, retold here.

As usually defined, the GI50 is the concentration at which growth is held to half of that of the control. The low end stands for greater sensitivity of the cells, the high end for lower sensitivity of the cells.

Assay type in all cases: functional
One experiment deals with SF-268. In words: Growth inhibition of human SF268 cells after 48 hrs by sulforhodamine B assay. The following applies: SF-268, 48 h.
Another experiment deals with MCF7. In words: Growth inhibition of human MCF7 cells after 48 hrs by sulforhodamine B assay. The conditions noted are these: MCF7, 48 h.
The test system of the next experiment is BXPC-3. In words: Growth inhibition of human BxPC3 cells after 48 hrs by sulforhodamine B assay. The conditions noted are these: BXPC-3, 48 h. For orientation: The SRB assay estimates cell density from bound dye.
The next experiment relates to KM-20L2. In words: Growth inhibition of human KM20L2 cells after 48 hrs by sulforhodamine B assay. The conditions noted are these: KM-20L2, 48 h.
Another experiment concerns DU-145. The experiment can be described thus: Growth inhibition of human DU145 cells after 48 hrs by sulforhodamine B assay. The conditions noted are these: DU-145, 48 h.
Another experiment deals with NCI-H460. In words: Growth inhibition of human NCI-H460 cells after 48 hrs by sulforhodamine B assay. The following applies: NCI-H460, 48 h.

Converted amounts (≈) assume the structure as drawn.

Turning to `COc1cc(/C=C/c2ccc(OC)c(O)c2O)cc(OC)c1O`, the concentration for 50% growth inhibition (GI50) is greater than 10 µg/mL in the experiment on SF-268; 5.5 µg/mL (≈ 17.3 µM) in the experiment on MCF7; greater than 10 µg/mL in the experiment on BXPC-3; greater than 10 µg/mL in the experiment with KM-20L2; greater than 10 µg/mL in the experiment on DU-145; greater than 10 µg/mL with NCI-H460.

Consider `COc1cc(/C=C/c2ccc(OC)c(OP(=O)([O-])[O-])c2OP(=O)([O-])[O-])cc(OC)c1OP(=O)([O-])[O-].[Na+].[Na+].[Na+].[Na+].[Na+].[Na+]`, for which the GI50 in the experiment on SF-268, in the experiment on MCF7, in the experiment with BXPC-3, in the experiment with KM-20L2, in the experiment with DU-145 and in the experiment with NCI-H460 was greater than 10 µg/mL in each case.

In the case of `COc1ccc(/C=C/c2cc(OC)c(O)c(OC)c2)cc1O`, the 50% growth inhibitory concentration (GI50) with BXPC-3 worked out at 5 µg/mL (≈ 16.5 µM); with DU-145, 6.3 µg/mL (≈ 20.8 µM); in the experiment with NCI-H460, 4.9 µg/mL (≈ 16.2 µM).

On to `COc1ccc(/C=C\c2cc(OC)cc(OC)c2)cc1` [8Z-3,4',5-TRIMETHOXYSTILBENE], for which the 50% growth inhibitory concentration (GI50) was determined as 0.0044 µg/mL (≈ 0.0163 µM) in the experiment with SF-268, 0.0034 µg/mL (≈ 0.0126 µM) in the experiment with BXPC-3, 0.0054 µg/mL (≈ 0.02 µM) in the experiment with DU-145 and 0.0028 µg/mL (≈ 0.0104 µM) with NCI-H460.

Take `Oc1ccc(/C=C\c2cc(O)cc(O)c2)cc1` [CIS-RESVERATROL]: the GI50 with SF-268 amounted to 5 µg/mL (≈ 21.9 µM); with KM-20L2, 22 µg/mL (≈ 96.4 µM).

Turning to `COc1ccc(/C=C\c2cc(OC)c(OC)c(OC)c2)cc1O` [COMBRETASTATIN A4], the GI50 is greater than 0.01 µg/mL in the experiment on SF-268; 0.39 µg/mL (≈ 1.23 µM) with BXPC-3; 0.34 µg/mL (≈ 1.07 µM) in the experiment on KM-20L2; 0.0008 µg/mL (≈ 0.00253 µM) with DU-145; 0.0006 µg/mL (≈ 0.0019 µM) in the experiment with NCI-H460.

On to `COc1ccc(/C=C/c2cc(OC)c(OC)c(OC)c2)cc1O` [E-COMBRETASTATIN A-4], for which the GI50 worked out at 3.9 µg/mL (≈ 12.3 µM) in the experiment with BXPC-3, 0.037 µg/mL (≈ 0.117 µM) in the experiment on DU-145 and 0.038 µg/mL (≈ 0.12 µM) with NCI-H460.

As to `COc1ccc(/C=C/c2cc(OC)cc(OC)c2)cc1` [TRISMETHOXYRESVERATROL], the concentration for 50% growth inhibition (GI50) in the experiment on SF-268 is 0.56 µg/mL (≈ 2.07 µM); in the experiment with BXPC-3, 0.35 µg/mL (≈ 1.29 µM); in the experiment with DU-145, 1.5 µg/mL (≈ 5.55 µM); in the experiment on NCI-H460, 0.62 µg/mL (≈ 2.29 µM).
